# Measured values as given in patent publication US20250171459A1, “2-METHYL-4',5'-DIHYDROSPIRO[PIPERIDINE-4,7'-THIENO[2,3-C]PYRAN] DERIVATIVES AS INHIBITORS OF APOL1 AND METHODS OF USING SAME” (Vertex Pharmaceuticals Incorporated, priority 2022, published 2025).
# Molecular target: T1, APOL1 (Homo sapiens, UniProt O14791)
# T1 sequence (O14791 1-398 S342G/I384M): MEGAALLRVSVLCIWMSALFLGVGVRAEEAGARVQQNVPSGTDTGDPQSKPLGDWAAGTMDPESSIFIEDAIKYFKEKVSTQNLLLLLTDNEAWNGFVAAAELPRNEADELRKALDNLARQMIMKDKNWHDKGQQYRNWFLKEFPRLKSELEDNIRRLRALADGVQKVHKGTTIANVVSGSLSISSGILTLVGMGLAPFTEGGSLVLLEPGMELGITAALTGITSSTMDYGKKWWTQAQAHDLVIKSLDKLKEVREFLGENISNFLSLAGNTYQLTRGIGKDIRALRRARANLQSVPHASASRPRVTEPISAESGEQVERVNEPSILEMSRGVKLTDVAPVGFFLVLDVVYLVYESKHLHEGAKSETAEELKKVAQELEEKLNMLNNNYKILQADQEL
# Experiment: MultiTox-Fluor Multiplex Cytotoxicity Assay in tet-inducible APOL1 T-REx-HEK293 cells (cell rescue, ratio of dead to live cells)
# Format: cell-based
# Conditions: tet-inducible transgenic APOL1 T-REx-HEK293 cell lines, 50 ng/mL tet, 24 hours; read-out: IP50 (i.e., IC50 for cell proliferation)
# Description: The MultiTox-Fluor Multiplex Cytotoxicity Assay is a single-reagent-addition, homogeneous, fluorescence assay that measures the number of live and dead cells simultaneously in culture wells. The assay measures cell viability and cytotoxicity by detecting two distinct protease activities. […] The substrate enters intact cells, where it is cleaved to generate a fluorescent signal proportional to the number of living cells. […] A ratio of dead to live cells is used to normalize data.
# The MultiTox reagent was added to each well and placed back in the incubator for an additional 30 minutes. The plate was read on the EnVision plate reader. A ratio of dead to live cells was used to normalize, and data was imported, analyzed, and fit using Genedata Screener (Basel, Switzerland) software. Data was normalized using percent of control, no tet (100% viability), and 50 ng/mL tet treated (0% viability), and fit using Smart Fit. The reagents, methods, and complete protocol for the MultiTox assay are described below.
# Cells were washed with DPBS and then trypsinized to dissociate from the flask. Media was used to quench the trypsin, cells were then pelleted at 200 g and resuspended in fresh cell assay media (DMEM, 2% Tet-free FBS, 2 mM L-glutamine, 100 Units/mL penicillin-streptomycin). […] The plates were then incubated at room temperature for one hour.
# Tetracycline is needed to induce APOL1 expression. 1 mg/mL tet stock in water was diluted to 250 ng/mL (5×) in cell assay media.
# Compounds were dispensed at 200 nL in DMSO. The final top concentration was 10 μM with a 10 point 3-fold dilution in duplicate in the MultiTox assay.
# 20 μL was transferred from the 5× tet plate to the ARP and mixed, then 5 μL of 5× tet and the compounds were transferred to the cell plate and mixed using the Bravo. The cell plate was placed in the humidified 37° C. 5% CO2 incubator for 24 hours.
# The MultiTox-Fluor Multiplex Cytotoxicity Assay was performed in accordance with the manufacturer's protocol. After cells were incubated with tet and compound for 24 hours, 25 μL of 1× MultiTox reagent was added to each well using the Multidrop dispenser; the plates were placed on a plate shaker (600 rpm) for 2 minutes, then centrifuged briefly and placed back in the 37° C. incubator for 30 minutes. The cell viability (excitation: 400 nm, emission: 486 nm) and cytotoxicity (excitation: 485 nm, emission: 535 nm) were read using the EnVision plate reader. A ratio of dead (cytotoxicity) to live (viability) cells was reported. Data was exported and analyzed in Genedata. Data was normalized using percent of control, no tet (100% viability), and 50 ng/mL tet treated (0% viability), and fit using Smart Fit settings in Genedata.
row,Structure (SMILES),IC50
1,C[C@H]1C[C@@]2(CCN1CCCn1cccn1)OCCc1cc(Cl)sc12 [Compound 642],500 to 1000 nM
2,CC(O)c1c(C(F)(F)F)sc2c1CCO[C@@]21CCN(Cc2cnn(CCS(C)(=O)=O)c2)[C@@H](C)C1 (some centres unmarked) [Compound 878],< 100 nM
3,"Clc1cc2c(s1)CCOC21CCN(Cc2cn[nH]c2)CC1 [Compound 1165, 2-chloro-1′-(1H-pyrazol-4-ylmethyl)spiro[6,7-dihydrothieno[3,2-c]pyran-4,4′-piperidine]]",100 to 500 nM
4,C[C@H]1C[C@@]2(CCN1Cc1cnn(C[C@H](O)C(N)=O)c1)OC[C@@H](O)c1cc(C(F)(F)F)sc12 [Compound 996],< 100 nM
5,C[C@H]1C[C@@]2(CCN1Cc1ccc(F)cn1)OCCc1c2sc(Cl)c1CO [Compound 726],500 to 1000 nM
6,CCc1cc2c(s1)CCO[C@@]21CCN(C[C@H]2C[C@@H](NC(=O)COC)C2)[C@@H](C)C1 [Compound 348],100 to 500 nM
7,"CCc1cc2c(s1)CCO[C@@]21CCN(Cc2ccc(Cl)nc2)[C@@H](C)C1 [Compound 199, (2′S,4R)-1′-[(6-chloro-3-pyridyl)methyl]-2-ethyl-2′-methyl-spiro[6,7-dihydrothieno[3,2-c]pyran-4,4′-piperidine]]",< 100 nM
8,CCc1cc2c(s1)CCO[C@@]21CCN(C[C@H]2C[C@@H](NS(=O)(=O)Cc3ccccc3)C2)[C@@H](C)C1 [Compound 398],< 100 nM
9,CCc1cc2c(s1)CCO[C@@]21CCN(Cc2cn(CCn3cccn3)nn2)[C@@H](C)C1 [Compound 46],100 to 500 nM
10,CCc1cc2c(s1)CCO[C@@]21CCN(Cc2cn(-c3cncc(F)c3)nn2)[C@@H](C)C1 [Compound 71],< 100 nM
11,CCc1cc2c(s1)CCOC21CCN(Cc2cnc(-c3cccnc3)s2)CC1 [Compound 1136],100 to 500 nM
12,CCc1cc2c(s1)CCO[C@@]21CCN(CC2(O)CCS(=O)(=O)CC2)[C@@H](C)C1 [Compound 257],100 to 500 nM
13,"CCc1cc2c(s1)CCO[C@@]21CCN(Cc2cn(CS(=O)(=O)CC)nn2)[C@@H](C)C1 [Compound 14, (2′S)-2-ethyl-1′-[[1-(ethylsulfonylmethyl)triazol-4-yl]methyl]-2′-methyl-spiro[6,7-dihydrothieno[3,2-c]pyran-4,4′-piperidine]]",100 to 500 nM
14,C[C@H]1C[C@@]2(CCN1Cc1cccn(C)c1=O)OCCc1cc(CC(F)F)sc12 [Compound 574],500 to 1000 nM
15,CCn1cc(CN2CC[C@]3(C[C@@H]2C)OCCc2c3sc(Cl)c2CO)cn1 [Compound 760],100 to 500 nM
16,CCc1cc2c(s1)CCOC21CCN(Cc2cn(CCS(C)(=O)=O)nn2)CC1 [Compound 1085],500 to 1000 nM
17,CCc1cc2c(s1)CCOC21CCN(Cc2cc(O)ccn2)CC1 [Compound 1152],500 to 1000 nM
18,C[C@H]1C[C@@]2(CCN1Cc1cnn(CCO)c1)OCCc1c2sc(C(F)(F)F)c1CO [Compound 875],< 100 nM
19,"CCc1cc2c(s1)CCO[C@@]21CCN(C[C@H]2C[C@@H](NC(=O)C3CC(F)(F)C3)C2)[C@@H](C)C1 [Compound 300, N-[3-[[(2′S,4R)-2-ethyl-2′-methyl-spiro[6,7-dihydrothieno[3,2-c]pyran-4,4′-piperidine]-1′-yl]methyl]cyclobutyl]-3,3-difluoro-cyclobutanecarboxamide]",< 100 nM
20,"CCOC(=O)C(C)(O)Cn1cc(CN2CC[C@]3(C[C@@H]2C)OCCc2c3sc(C(F)(F)F)c2CO)cn1 (stereo partly drawn) [Compound 988, Ethyl 2-hydroxy-3-[4-[[(2′S, 7R)-3-(hydroxymethyl)-2′-methyl-2-(trifluoromethyl)spiro[4,5-dihydrothieno[2,3-c]pyran-7,4′-piperidine]-1′-yl]methyl]pyrazol-1-yl]-2-methyl-propanoate]",< 100 nM
21,CCc1cc2c(s1)CCO[C@@]21CCN(C)[C@@H](C)C1 [Compound 277],500 to 1000 nM
22,CCc1cc2c(s1)CCO[C@]21CCN(Cc2cnn(CCS(C)(=O)=O)c2)[C@H](C)C1 [Compound 273],100 to 500 nM
23,CCc1cc2c(s1)CCOC21CCN(Cc2cncs2)CC1 [Compound 1142],500 to 1000 nM
24,"[2H]C(OCC)c1cc2c(s1)[C@]1(CCN(Cc3cnn(CCS(C)(=O)=O)c3)[C@@H](C)C1)OCC2 (stereo partly drawn) [Compound 1015, (2′S, 7R)-2-[deuterio(ethoxy)methyl]-2′-methyl-1′-[[1-(2-methylsulfonylethyl)pyrazol-4-yl]methyl]spiro[4,5-dihydrothieno[2,3-c]pyran-7,4′-piperidine]]",< 100 nM

row,Structure (SMILES),IC50
1,Cc1cc2c(s1)[C@]1(CCN(Cc3cnc(NC(C)(C)CO)nc3)[C@@H](C)C1)OCC2 [Compound 1025],< 100 nM
2,CCc1cc2c(s1)CCO[C@@]21CCN(CCO)[C@@H](C)C1 [Compound 239],100 to 500 nM
3,CCc1cc2c(s1)CCO[C@@]21CCN(CC2CN(C(=O)C(C)(C)O)C2)[C@@H](C)C1 [Compound 443],< 100 nM
4,C[C@H]1C[C@@]2(CCN1CC(N)=O)OCCc1cc(CC(F)F)sc12 [Compound 622],500 to 1000 nM
5,CCc1cc2c(s1)CCO[C@@]21CCN(Cc2cn(C3CC(=O)N(CCOC)C3)nn2)[C@@H](C)C1 (some centres unmarked) [Compound 180],< 100 nM
6,CCc1cc2c(s1)CCOC21CCN(Cc2ccc(C(=O)NC3CCCC3=O)nc2)CC1 (centres unmarked) [Compound 1058],100 to 500 nM
7,CCc1cc2c(s1)CCOC21CCN(Cc2cnc(NCc3cc[nH]c(=O)c3)nc2)CC1 [Compound 1075],100 to 500 nM
8,CCc1cc2c(s1)CCO[C@@]21CCN(Cc2cn(C3CN(S(=O)(=O)C4CC4)C3)nn2)[C@@H](C)C1 [Compound 5],< 100 nM
9,CCc1cc2c(s1)CCO[C@@]21CCN(Cc2cn(C(C)(CO)CO)nn2)[C@@H](C)C1 [Compound 177],500 to 1000 nM
10,CCc1cc2c(s1)CCO[C@@]21CCN(CC2CN(C(=O)CN3CCS(=O)(=O)CC3)C2)[C@@H](C)C1 [Compound 445],< 100 nM
11,CCc1cc2c(s1)CCO[C@@]21CCN(C[C@H]2C[C@@H](NC(=O)C3(O)CC3)C2)[C@@H](C)C1 [Compound 335],< 100 nM
12,CCc1cc2c(s1)CCOC21CCN(Cc2cn(CC(O)C(C)(C)O)nn2)C(C)C1 (centres unmarked) [Compound 123],< 100 nM
13,C[C@H]1C[C@@]2(CCN1Cc1cnn(CC(N)=O)c1)OCCc1cc(Cl)sc12 [Compound 705],100 to 500 nM
14,CCc1cc2c(s1)CCO[C@@]21CCN(Cc2cn(Cc3cn(C)nc3C)nn2)[C@@H](C)C1 [Compound 54],< 100 nM
15,CCc1cc2c(s1)CCO[C@@]21CCN(Cc2cn(CC(O)CN3CCCC3=O)nn2)[C@@H](C)C1 (some centres unmarked) [Compound 99],< 100 nM
16,CCc1cc2c(s1)CCOC21CCN(Cc2cn(C)nn2)CC1 [Compound 1158],500 to 1000 nM
17,CCc1cc2c(s1)CCO[C@@]21CCN(C[C@H]2C[C@@H](NS(=O)(=O)C3COC3)C2)[C@@H](C)C1 [Compound 401],< 100 nM
18,"CC1Cc2sc(Cl)cc2C2(CCN(Cc3cnn(C)c3)[C@@H](C)C2)O1 (single isomer, unassigned) [Compound 528, (2′S)-2-chloro-2′,6-dimethyl-1′-[(1-methylpyrazol-4-yl)methyl]spiro[6,7-dihydrothieno[3,2-c]pyran-4,4′-piperidine]]",100 to 500 nM
19,CCc1cc2c(s1)CCOC21CCN(Cc2cnn(CCS(=O)(=O)NC)c2)CC1 [Compound 1127],< 100 nM
20,C[C@H]1C[C@@]2(CCN1Cc1cnn(C)c1)OCC(O)c1cc(Cl)sc12 (mixture of isomers) [Compound 818],< 100 nM
21,CCc1cc2c(s1)CCO[C@@]21CCN(Cc2cn([C@H]3CC[C@@H]3O)nn2)[C@@H](C)C1 [Compound 144],100 to 500 nM
22,"CCc1cc2c(s1)CCO[C@@]21CCN(Cc2cn(-c3cncc(O)c3)nn2)[C@@H](C)C1 [Compound 16, 5-[4-[[(2′S,4R)-2-ethyl-2′-methyl-spiro[6,7-dihydrothieno[3,2-c]pyran-4,4′-piperidine]-1′-yl]methyl]triazol-1-yl]pyridin-3-ol]",100 to 500 nM
23,C[C@H]1C[C@@]2(CCN1Cc1ccnn1C)OCCc1cc(CC(F)F)sc12 [Compound 571],100 to 500 nM
